The results in this text go back to patent US6994954B2, “System for organ and tissue preservation and hypothermic blood substitution” (Organ Recovery Systems, Inc., priority 2000, dated 2006).

Experiment [1] relates to A10 smooth muscle cells. Nature of the experiment: Cryopreservation of A10 cells with DMSO in vehicle solution, Alamar Blue. The class given is cell-based. The settings on record: freezing and thawing. As to the method:
(§1) The same system as that described above for cells in microtiter plates was used to evaluate a preferred embodiment of the exemplary High-K Intracellular-base solution as a new carrier solution for cryoprotective additives (CPA). Specifically, a phosphate-free formulation of the new High-K solution was prepared to avoid the known precipitation of divalent cation phosphates in the presence of the cryoprotectant DMSO at low temperatures. Cell survival was compared after freezing and thawing in the presence of a range of concentrations of DMSO prepared in either the new phosphate-free HK-cryoprotectant vehicle solution (HK-CV), or EuroCollins medium. EuroCollins is an organ preservation solution that has also been used in the field of cryobiology as a vehicle solution for cryoprotectants.
(§2) Cells were plated at 2×10^4 cells/well and after overnight incubation regular culture medium was replaced with the experimental CPA mixtures using the following protocol: Plates were cooled to −80° C. at a controlled rate (1° C./min) and stored overnight at −135° C. The plates were thawed using a two-step warming protocol and the CPA was diluted using mannitol as an osmotic buffer. Cell viability was assessed using the Alamar Blue assay of cellular metabolic activity at 37° C. FIGS. 15 and 16 show the comparative viability of two cell types after cryopreservation in the respective media. […]

Experiment [2] concerns bovine corneal endothelial (BCE) cells. Nature of the experiment: Cryopreservation of BCE cells with DMSO in vehicle solution, Alamar Blue. Type of experiment: cell-based. The settings on record: freezing and thawing. As to the method: as §1, §2
In general terms: The colour change of resazurin is a common sign of viable cells or microbes.

On to `C[S+](C)[O-]` [DMSO, Dimethylsulfoxide], for which the “DMSO concentration giving optimum survival” value in experiment [1] and in experiment [2] was 1 to 2 M throughout.
